From patent US9439927B2, “Treatment of inflammatory bowel disease” (Glock Health GmbH, priority 2013, dated 2016) come the findings set out here.

Experiment [1] concerns IBD induced by administration of dextran sulfate sodium (DSS). In words: Blood in stool, DSS-induced IBD in mice. It counts as in vivo. Set-up: key to Blood in stool: + Blood in stool; − No blood in stool. Conditions: for Blood in stool: DSS in drinking water for five days, test substance orally from the sixth day. On the procedure: (§1) For five groups of 12 mice each (only 3 mice in the control), the experimental routine procedure frequently used in connection with the treatment of IBD was carried out, in which IBD is induced by administration of dextran sulfate sodium (DSS). This involved administering DSS in drinking water for five days (but not in the control group), and after that the particular test substance was administered orally. On the tenth day, the mice were sacrificed using CO2 and the colon was removed for examination. The individual groups were as follows:
Group 2: received only DSS.
Group 3: (GHC1) received DSS as described above and, from the sixth day, a clinoptilolite freed of heavy metals which was ground to a mean particle size of 3.5 μm and thus not in accordance with the invention.
Group 4: (GHC2) received, from the sixth day, the substance according to the invention.
Group 5: (5ASA) received, from the sixth day, sulfasalazine, a derivative of mesalazine, also termed 5-ASA.

Experiment [2] shares this test system. In words: Stool consistency (stool score), DSS-induced IBD in mice. It counts as in vivo. The conditions noted are these: tenth day, FIG. 2. As to the method:
(§2) For five groups of 12 mice each (only 3 mice in the control), the experimental routine procedure frequently used in connection with the treatment of IBD was carried out, in which IBD is induced by administration of dextran sulfate sodium (DSS). This involved administering DSS in drinking water for five days (but not in the control group), and after that the particular test substance was administered orally. On the tenth day, the mice were sacrificed using CO2 and the colon was removed for examination.

For another experiment, the system named is intestinal epithelium. As to the kind of experiment: Histological analysis (hematoxylin and eosin staining) and colon damage score. It is filed as in vivo, mice. On the procedure: as §2
Another experiment has as its system TNF-α. In words: TNF-α mRNA by RT-PCR in intestinal tissue homogenates. Conditions: FIG. 10. It is filed as in vivo, mice. As to the method: as §1
To objectify and quantify the effects determined from the histological examinations, further analyses of biochemical inflammation markers (TNF-α/IL-6/IL-1β mRNA by means of RT-PCR, MPO activity) from tissue homogenates of the relevant intestinal segments were carried out.
Two further proinflammatory cytokines were examined; the results are shown in FIG. 9 (IL-6) and 10 (TNF-α). Said figures show: • 2expΔΔct=the rise in expression for a particular gene (1=1×, 2=2×, etc.); • Control=control group; • DSS1.5=group 2; • DSS1.5+GHC1=group 3; • DSS1.5+GHC2=(inventive) group 4; • DSS1.5+5ASA=group 5; • **=a very significant difference in relation to the control group (control); • #=a significant difference in relation to the DDS1.5 group (group 2); • ##=a very significant difference in relation to the DDS1.5 group (group 2).

In the case of `O=C(O)c1cc(/N=N/c2ccc(S(=O)(=O)Nc3ccccn3)cc2)ccc1O` [5ASA, sulfasalazine], the Blood in stool result in experiment [1] (day 0) is given as “−”; in experiment [1] (day 2) it was “−”; in experiment [1] (day 4) it was “−”; in experiment [1] (day 6) it was “+”; in experiment [1] (day 8), “−”; in experiment [1] (day 10), “−”. Besides, the “Days on which blood in stool was exhibited” value in experiment [1] (text summary of Table I) is “only on the sixth day”. Besides, in experiment [2], the “Stool consistency, return to normal range” value is listed as “completely within the normal range”. For the same compound, the “Healing of the intestinal epithelium (histology)” value with intestinal epithelium (hematoxylin and eosin staining, day 10, FIG. 5) is recorded as “distinctly improved healing of the intestinal epithelium”. Besides, the Colon damage score result with intestinal epithelium (histo(patho)logical examinations, FIG. 6) was “good convergence”. In addition, the “TNF-α expression (2expΔΔct)” value with TNF-α is listed as “does not show a positive effect”.
